Assay results published in patent US8569327B2, “Phenanthroindolizidine derivative and NFκB inhibitor containing same as active ingredient” (Kabushiki Kaisha Yakult Honsha, priority 2008, dated 2013).

Experiments:
NFκB = test: Inhibitory action on the NFκB activity, luciferase assay in SW480/NRE-Luc cells; assay type: cell-based, human; conditions: for IC50: Homo sapiens, SW480, read-out: NFκB inhibitory activity IC50; for NFκB inhibitory activity IC50: SW480/NRE-Luc cells, compound 1 h then 50 ng/mL TNFα 4 h, luciferase
Excerpt: (§1) The action of the phenanthroindolizidine alkaloid compound of the present invention on the NFκB activity was studied using a luciferase assay. Human colon cancer SW480 cells were transfected with pNFκB-Luc Plasmid (Stratagene), which is a reporter vector in which a five-time tandem repeat of the NFκB responsive element (NRE) is integrated into the upstream of the luciferase gene, using Lipofectamine 2000 (Invitrogen Corporation) in accordance with the attached operating procedure. Subsequently, the cells were cultured in an RPMI1640 medium containing 10% FBS, 100 U/mL penicillin, 100 μg/mL streptomycin, and 0.5 mg/mL G418 to produce SW480 cells having the luciferase gene, the expression of which is regulated by NRE, stably introduced therein (SW480/NRE-Luc cells). Likewise, SW480 cells were transfected with pGL3-Control Vector (Promega Corporation), which is a reporter vector in which the SV40 promoter is integrated into the upstream of the luciferase gene, to produce SW480 cells having the luciferase gene, the expression of which is regulated by the SV40 promoter, stably introduced therein (SW480/SV40-Luc cells). The SW480/NRE-Luc cells or the SW480/SV40-Luc cells were suspended in an RPMI1640 medium containing 10% FBS, 100 U/mL penicillin, and 100 μg/mL streptomycin (10% FBS/RPMI1640), and then seeded in a 96-well microplate, followed by culturing under conditions of 5% CO2 and at 37° C. (5000 cells/well). After an overnight culture, the compound of the present invention was added, followed by culturing for one hour. Further, 50 ng/mL TNFα (Sigma-Aldrich Corporation) was added, followed by culturing for four hours. Subsequently, a Steady-Glo Luciferase Assay reagent (Promega Corporation) was added, and the luminescent intensity was detected by SpectraMax M5e (Molecular Devices, Inc.) to measure the intracellular luciferase activity. It is to be noted that the action of the compound of the present invention on the NFκB activity or the SV40 promoter activity was shown as IC50 values (the concentration of a test compound needed for 50% inhibition of the induction of the luciferase expression).

SV40 promoter = SV40 promoter activity, luciferase assay in SW480/SV40-Luc cells; assay type: cell-based, human; conditions: for IC50: Homo sapiens, SW480, read-out: SV40 promoter inhibitory activity IC50; for SV40 promoter inhibitory activity IC50: SW480/SV40-Luc cells, luciferase
Excerpt: as §1

[1] = test system: human colon cancer SW480 cells; test: Inhibitory action on the proliferation of SW480 cells; assay type: cell-based; conditions: 48 hours, TetraColor ONE; for IC50: Homo sapiens, SW480
Method: (§2) The action of the phenanthroindolizidine alkaloid compound of the present invention on the proliferation of human colon cancer SW480 cells, HT-29 cells, and human non-small cell lung cancer A549 cells was studied. The SW480 cells were suspended in a 10% FBS/RPMI1640 and then seeded in a 96-well microplate, followed by culturing in 5% CO2 at 37° C. (2000 cells/well). The A549 cells and the HT-29 cells were each suspended in a DMEM medium containing 10% FBS, 100 U/mL penicillin, and 100 μg/mL streptomycin (10% FBS/DMEM) and a DMEM F-12 HAM medium containing 10% FBS, 100 U/mL penicillin, and 100 μg/mL streptomycin (10% FBS/DMEM F12 HAM), and then seeded in 96-well microplates, followed by culturing in 5% CO2 at 37° C. (1000 cells/well). After an overnight culture, the compound of the present invention was added, followed by further culturing for 48 hours (SW480 cells) and 96 hours (A549 cells and HT-29 cells). After culturing, the number of viable cells was counted using TetraColor ONE (Seikagaku Corporation) in accordance with the attached operating procedure. The results were expressed as the concentration of a test compound needed for 50% inhibition of the proliferation of the cells (IC50).

[2] = test system: human colon cancer HT-29 cells; test: Inhibitory action on the proliferation of HT-29 cells; assay type: cell-based; conditions: 96 hours, TetraColor ONE; for IC50: Homo sapiens, HT-29
Method: as §2

[3] = test system: human non-small cell lung cancer A549 cells; test: Inhibitory action on the proliferation of A549 cells; assay type: cell-based; conditions: 96 hours, TetraColor ONE; for IC50: Homo sapiens, A549
Method: as §2

Row | Compound | IC50 (NFκB) | IC50 (SV40 promoter) | IC50 [1] | IC50 [2] | IC50 [3] | NFκB inhibitory activity IC50 (NFκB) | SV40 promoter inhibitory activity IC50 (SV40 promoter) | SW480 proliferation inhibitory action IC50 [1] | HT-29 proliferation inhibitory action IC50 [2] | A549 proliferation inhibitory action IC50 [3]
1 | COc1cc2c3c(c4ccc(NC(=O)OCc5ccccc5)cc4c2cc1OC)[C@H](O)[C@@H]1CCCN1C3.Cl [Compound 26, ((12aS,13S)-13-hydroxy-6,7-dimethoxy-9,10,11,12,12a,13-hexahydro-9a-aza-cyclopenta[b]triphenylene-3-yl)-carbamic acid benzyl ester hydrochloride] | 19.9 ng/mL | > 1000 ng/mL | 37.3 ng/mL | 6.7 ng/mL | 8.8 ng/mL | – | – | – | – | –
2 | COc1cc2c3c(c4cccc(O)c4c2cc1OC)[C@H](O)[C@@H]1CCCN1C3.Cl [Compound 30, (12aS,13S)-6,7-dimethoxy-9,10,11,12,12a,13-hexahydro-9a-aza-cyclopenta[b]triphenylene-4,13-diol hydrochloride] | 0.017 ng/mL | > 1000 ng/mL | 0.45 ng/mL | 30.5 ng/mL | 1.2 ng/mL | – | – | – | – | –
3 | COc1cc2c3c(c4ccc(OC(=O)C(C)(C)C)cc4c2cc1OC)C[C@@H]1CCCN1C3.Cl [Compound 35, 2,2-dimethyl-propionic acid(S)-6,7-dimethoxy-9,10,11,12,12a,13-hexahydro-9a-aza-cyclopenta[b]triphenylene-3-yl ester hydrochloride] | – | – | – | – | – | 2.4 ng/mL | >1000 ng/mL | 4.1 ng/mL | 3.7 ng/mL | 1.2 ng/mL
4 | CCc1ccc2c3c(c4cc(OC)c(OC)cc4c2c1)CN1CCC[C@H]1C3.Cl [Compound 41, (S)-3-ethyl-6,7-dimethoxy-9,10,11,12,12a,13-hexahydro-9a-aza-cyclopenta[b]triphenylene hydrochloride] | 281 ng/mL | > 10000 ng/mL | 391 ng/mL | 167 ng/mL | 112 ng/mL | – | – | – | – | –
5 | COc1cc2c3c(c4ccc(NC(=O)OCC(C)C)cc4c2cc1OC)C[C@@H]1CCCN1C3.Cl [Compound 42, ((S)-6,7-dimethoxy-9,10,11,12,12a,13-hexahydro-9a-aza-cyclopenta[b]triphenylene-3-yl)-carbamic acid isobutyl ester hydrochloride] | 117 ng/mL | > 10000 ng/mL | 96.3 ng/mL | 19 ng/mL | 27 ng/mL | – | – | – | – | –
6 | COc1cc2c3c(c4ccc(OC(=O)c5cccnc5)cc4c2cc1OC)C[C@@H]1CCCN1C3.CS(=O)(=O)O [Compound 47, nicotinic acid(S)-6,7-dimethoxy-9,10,11,12,12a,13-hexahydro-9a-aza-cyclopenta[b]triphenylene-3-yl ester methanesulfonate] | – | – | – | – | – | 0.42 ng/mL | >1000 ng/mL | 0.38 ng/mL | 1.9 ng/mL | 1.1 ng/mL
7 | COc1cc2c3c(c4ccc(OC(=O)C(C)(C)C)cc4c2cc1OC)C[C@@H]1CCCN1C3.CS(=O)(=O)O [Compound 48, 2,2-dimethyl-propionic acid(S)-6,7-dimethoxy-9,10,11,12,12a,13-hexahydro-9a-aza-cyclopenta[b]triphenylene-3-yl ester methanesulfonate] | – | – | – | – | – | 0.40 ng/mL | >1000 ng/mL | 0.58 ng/mL | 2.0 ng/mL | 1.2 ng/mL
8 | CCCCC(=O)Oc1ccc2c3c(c4cc(OC)c(OC)cc4c2c1)CN1CCC[C@H]1C3.CS(=O)(=O)O [Compound 49, pentanoic acid(S)-6,7-dimethoxy-9,10,11,12,12a,13-hexahydro-9a-aza-cyclopenta[b]triphenylene-3-yl ester methanesulfonate] | – | – | – | – | – | 0.41 ng/mL | >1000 ng/mL | 0.62 ng/mL | 2.0 ng/mL | 1.1 ng/mL
9 | CCCC(=O)Oc1ccc2c3c(c4cc(OC)c(OC)cc4c2c1)CN1CCC[C@H]1C3.CS(=O)(=O)O [Compound 50, butyric acid(S)-6,7-dimethoxy-9,10,11,12,12a,13-hexahydro-9a-aza-cyclopenta[b]triphenylene-3-yl ester methanesulfonate] | – | – | – | – | – | 0.34 ng/mL | >100 ng/mL | 0.54 ng/mL | 1.5 ng/mL | 0.86 ng/mL
10 | CCC(=O)Oc1ccc2c3c(c4cc(OC)c(OC)cc4c2c1)CN1CCC[C@H]1C3.CS(=O)(=O)O [Compound 51, propionic acid(S)-6,7-dimethoxy-9,10,11,12,12a,13-hexahydro-9a-aza-cyclopenta[b]triphenylene-3-yl ester methanesulfonate] | – | – | – | – | – | 0.80 ng/mL | >100 ng/mL | 1.1 ng/mL | 1.6 ng/mL | 0.78 ng/mL
11 | COc1cc2c3c(c4ccc(OC(=O)c5ccco5)cc4c2cc1OC)C[C@@H]1CCCN1C3.CS(=O)(=O)O [Compound 52, furan-2-carboxylic acid(S)-6,7-dimethoxy-9,10,11,12,12a,13-hexahydro-9a-aza-cyclopenta[b]triphenylene-3-yl ester methanesulfonate] | – | – | – | – | – | 0.61 ng/mL | >1000 ng/mL | 0.51 ng/mL | 2.0 ng/mL | 1.3 ng/mL
12 | COc1cc2c3c(c4ccccc4c2cc1OC)C[C@@H]1CCCN1C3.CS(=O)(=O)O [Compound 53, (S)-6,7-dimethoxy-9,10,11,12,12a,13-hexahydro-9a-aza-cyclopenta[b]triphenylene methanesulfonate] | 19.1 ng/mL | > 10000 ng/mL | 32.9 ng/mL | 58.5 ng/mL | 28.9 ng/mL | – | – | – | – | –
13 | COc1cc2c3c(c4ccc(N)cc4c2cc1OC)C[C@@H]1CCCN1C3.CS(=O)(=O)O [Compound 54, (S)-3-amino-6,7-dimethoxy-9,10,11,12,12a,13-hexahydro-9a-aza-cyclopenta[b]triphenylene methanesulfonate] | 2 ng/mL | > 10 ng/mL | 3.9 ng/mL | 4.15 ng/mL | 2.8 ng/mL | – | – | – | – | –
14 | COc1cc2c3c(c4ccc(NC(=O)OCC(C)C)cc4c2cc1OC)C[C@@H]1CCCN1C3.CS(=O)(=O)O [Compound 55, ((S)-6,7-dimethoxy-9,10,11,12,12a,13-hexahydro-9a-aza-cyclopenta[b]triphenylene-3-yl)-carbamic acid isobutyl ester methanesulfonate] | 0.5 ng/mL | > 10000 ng/mL | 0.76 ng/mL | 46 ng/mL | 33.7 ng/mL | – | – | – | – | –
15 | COc1cc2c3c(c4ccc(N5CCCC5)cc4c2cc1OC)C[C@@H]1CCCN1C3.CS(=O)(=O)O [Compound 57, (S)-6,7-dimethoxy-3-pyrrolidine-9,10,11,12,12a,13-hexahydro-9a-aza-cyclopenta[b]triphenylene methanesulfonate] | – | – | – | – | – | 0.67 ng/mL | >10000 ng/mL | 1.0 ng/mL | 74.1 ng/mL | 61.1 ng/mL
